Experimental data: patent US12144872B1, “Modified nanodelivery system and method for enhanced in vivo medical and preclinical imaging” (Florida A&M University, priority 2012, dated 2024)

System: 4T1-luc tumor models
Experiment: In vivo bioluminescence/fluorescence imaging and kinetics in luciferase-expressing tumor models
Conditions: mice, 150 mg/kg luciferin solution
Protocol: All the cell lines were modified for the luciferase reporter gene expression.
Trypsinization was stopped with medium containing 10% FBS. The cells were centrifuged, and the floating cells in the supernatant were discarded. The cell pellet was resuspended in medium containing 10% FBS and mixed thoroughly. Trypan blue staining was used to determine the number of viable cells. The resuspended cells were centrifuged, and cell dilutions of 2±10^6 cells/100 μl were prepared in growth medium. The 100 μl of cell suspension was injected subcutaneously into the right flank area of each mouse. The mice were randomized into control and treatment groups when xenografts were palpable with a tumor size of 50 mm^3.
The orthotopic tumor model was used to mimic the cancer in humans in athymic nu/nu mice (6-week old). […] Only cell suspensions of >90% viability, as determined by trypan blue exclusion, were used. […]
Nu/Nu mice were anesthetized and tumor cells (2 million per mouse) were injected via tail vein. Only cell suspensions of >90% viability, as determined by trypan blue exclusion, were used. […]
Imaging was performed with an IVIS Spectrum (16). Bioluminescent signals were quantified using Living Image® software (Caliper Life Sciences., Alameda, CA.).
Imaging was performed with an IVIS SpectrumCT (35). Bioluminescent signals were quantified using Living Image® software (Caliper Life Sciences., Alameda, CA.).

## O=C(O)[C@H]1CSC(c2nc3ccc(O)cc3s2)=N1 [Free luciferin, luciferin]
  time to clearance from circulation: ≤ 60 min
